Publication PMC4342408 (Structure(London, England:1993), 2014)
Numbering of substitutions follows the chain as printed. Values belong to the molecule of their own block, whether it stands above or below them.

Experiments:
HYPE [1] = target: T1, HYPE (Homo sapiens, UniProt Q9BVA6, E234G); assay: differential scanning fluorimetry (thermal shift), […] ligand; type: binding
T1 construct: gene FICD; 172–434
T1 sequence (Q9BVA6 172-434 E234G): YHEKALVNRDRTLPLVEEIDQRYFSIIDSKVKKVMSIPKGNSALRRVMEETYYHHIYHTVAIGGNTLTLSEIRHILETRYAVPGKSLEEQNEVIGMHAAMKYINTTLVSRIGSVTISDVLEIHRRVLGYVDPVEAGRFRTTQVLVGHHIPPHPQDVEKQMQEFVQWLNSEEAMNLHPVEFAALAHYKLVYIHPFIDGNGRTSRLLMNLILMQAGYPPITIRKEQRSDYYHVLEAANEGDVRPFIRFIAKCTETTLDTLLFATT

[2] = target: wild-type HYPE construct lacking the first 102 amino-acid residues (construct used for crystallization) (human) (UniProt Q9BVA6); assay: SAXS; small angle X-ray scattering of soluble HYPE constructs in solution; methods in Supplemental Experimental Procedures
HYPE [3] = target: T2, HYPE (Homo sapiens, UniProt Q9BVA6, E234G); assay: crystal structure ([…] Å); thermal shift; type: binding; design: gene FICD; TPR-motifs, linker and FIC domain (lacking first 102 residues)
T2 sequence (Q9BVA6 103-445 E234G): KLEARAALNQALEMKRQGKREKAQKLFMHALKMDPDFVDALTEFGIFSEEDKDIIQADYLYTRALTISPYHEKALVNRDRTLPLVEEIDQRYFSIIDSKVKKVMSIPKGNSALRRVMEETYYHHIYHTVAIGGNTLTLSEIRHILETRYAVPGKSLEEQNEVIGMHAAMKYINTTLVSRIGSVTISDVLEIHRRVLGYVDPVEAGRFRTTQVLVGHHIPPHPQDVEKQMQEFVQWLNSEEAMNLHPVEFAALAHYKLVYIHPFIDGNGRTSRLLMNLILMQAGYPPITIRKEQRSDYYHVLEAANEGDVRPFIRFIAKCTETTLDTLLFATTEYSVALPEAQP

HYPE [4] = target: T3, HYPE (Homo sapiens, UniProt Q9BVA6); assay: ITC; crystal structure; thermal shift; type: binding
T3 construct: gene FICD; residues 103-445
T3 sequence (Q9BVA6 103-445): T2 sequence (Q9BVA6 103-445 E234G) with G132E

HYPE [5] = target: T2, HYPE; assay: ITC; crystal structure; thermal shift; type: binding; design: gene FICD; residues 103-445
[6] = target: the molecule itself; assay: SEC; analytical gel filtration of purified HYPE constructs

Molecule: Nc1nc2c(ncn2[C@@H]2O[C@H](COP(=O)(O)OP(=O)(O)OP(=O)(O)O)[C@@H](O)[C@H]2O)c(=O)[nH]1 [guanosine-5'-triphosphate]
differential scanning fluorimetry (thermal shift), 200 μM ligand (HYPE [1]): showed similar binding of ATP and guanosine-5'-triphosphate

stoichiometry N [2]: 2
Molecule: wild-type HYPE construct lacking the first 102 amino-acid residues (construct used for crystallization) (from UniProt Q9BVA6 103-458) (domain or fragment)

Molecule: O=c1ccn([C@@H]2O[C@H](CO[P@@](=O)(O)O[P@@](=O)(O)OP(=O)(O)O)[C@@H](O)[C@H]2O)c(=O)[nH]1 (stereo in doubt) [uridine triphosphate]
differential scanning fluorimetry (thermal shift), 200 μM ligand (HYPE [1]): a less strong binding of cytidine triphosphate and uridine triphosphate (Figure 6A)

Molecule: Nc1ncnc2c1ncn2C1OC(COP(=O)(O)OP(=O)(O)OP(=O)(O)O)C(O)C1O (centres unmarked) [ATP]
crystal structure (2.7 Å); thermal shift (HYPE [3]): we have also obtained structures with the ATP cofactor bound to an E234G variant

Kd (HYPE [4]): 1500 nM
Kd (HYPE [5]): 160 nM
Molecule: Nc1ncnc2c1ncn2[C@@H]1O[C@H](COP(=O)(O)OP(=O)(O)O)[C@@H](O)[C@H]1O [ADP]

B1: HYPE (172–445), containing the linker helix and FIC domain (domain or fragment, human, UniProt Q9BVA6 172-445, looked up)
chain: YHEKALVNRDRTLPLVEEIDQRYFSIIDSKVKKVMSIPKGNSALRRVMEETYYHHIYHTVAIEGNTLTLSEIRHILETRYAVPGKSLEEQNEVIGMHAAMKYINTTLVSRIGSVTISDVLEIHRRVLGYVDPVEAGRFRTTQVLVGHHIPPHPQDVEKQMQEFVQWLNSEEAMNLHPVEFAALAHYKLVYIHPFIDGNGRTSRLLMNLILMQAGYPPITIRKEQRSDYYHVLEAANEGDVRPFIRFIAKCTETTLDTLLFATTEYSVALPEAQP
notes: human HYPE (FICD), residues 172-445: linker helix and FIC domain; cloned into pOPINS; also called ΔTPR; HYPE lacking TPR-motifs; source: E. coli C41(DE3), purified (Ni2+ chelating, Q-sepharose, gel filtration)
binding result [6]: binds

B2: HYPE variant (103–434), containing TPR-motifs, linker, and FIC domain (domain or fragment, human, UniProt Q9BVA6 103-434, looked up)
chain: KLEARAALNQALEMKRQGKREKAQKLFMHALKMDPDFVDALTEFGIFSEEDKDIIQADYLYTRALTISPYHEKALVNRDRTLPLVEEIDQRYFSIIDSKVKKVMSIPKGNSALRRVMEETYYHHIYHTVAIEGNTLTLSEIRHILETRYAVPGKSLEEQNEVIGMHAAMKYINTTLVSRIGSVTISDVLEIHRRVLGYVDPVEAGRFRTTQVLVGHHIPPHPQDVEKQMQEFVQWLNSEEAMNLHPVEFAALAHYKLVYIHPFIDGNGRTSRLLMNLILMQAGYPPITIRKEQRSDYYHVLEAANEGDVRPFIRFIAKCTETTLDTLLFATT
notes: human HYPE (FICD), residues 103-434: TPR-motifs (105-135, 140-170), linker (170-215), FIC domain (215-432); cloned into pOPINS; wild type; also called HYPE (103-434); source: E. coli C41(DE3), purified (Ni2+ chelating, Q-sepharose, gel filtration)
stoichiometry N [6]: 2
